Experimental data reported in publication PMC12970513, “Unsaturated Phosphorus Electrophiles to Probe Protein Tyrosine Phosphatases” (Angewandte Chemie (International Ed. in English), 2026).

What was measured:
[1] = Thiol reactivity with glutathione (UPLC-UV/MS); conditions: 1 mM compound, 10 mM GSH (10 equivalents), 25°C / room temperature, 16 h, caffeine (peptides) or TPPO (SM) internal standard, n = 3; for consumption of starting material to glutathione adduct, pH 7.4: Tris pH 7.4, 10% DMSO; for consumption of starting material to glutathione adduct, pH 8.5: Tris pH 8.5, 10% DMSO
Procedure: After verifying the stability of the phosphonamidic and phosphonic acid warheads at physiological and slightly basic pH, we aimed to investigate the reactivity towards endogenous thiol concentrations. For this, 1 mM bio‐PN or bio‐PO and 1 mM caffeine as an internal standard, as well as 1 mM SM‐PN or SM‐PO and 1 mM TPPO (internal standard), were incubated at room temperature with 10 equivalents (10 mM) glutathione (GSH), and the outcome was followed by UPLC‐MS (Figure S4).
FIGURE 3 Time‐dependent decay of bio‐PN, bio‐PO, SM‐PN, and SM‐PO (1 mM) in the presence of 10 mM GSH with 1 mM caffeine or TPPO as internal standard. The assay was performed at 25°C in Tris buffer (10% DMSO) at (a) pH 7.4, (b) pH 8.5. Results are presented as mean ± standard deviation (n = 3). (c) Labeling conditions to assess by ESI‐MS the ability of bio‐PN, bio‐PO, SM‐PN, and SM‐PO to covalently bind recombinant PTP1B. Stacked deconvoluted MS spectra of the initial time point (t0) of PTP1B labeling with (d) bio‐PO after 4 h: full labeling, (e) bio‐PN after 20 h: ∼80% labeling, (f) SM‐PO after 20 h: no labeling, (g) SM‐PN after 20 h: no labeling.
Figure S4: Monitoring of thiol reactivity with GSH as a model thiol of peptide and small molecule phosphonamidic and phosphonic acids by UPLC-UV/MS. a) Reaction conditions for bio-PN and bio-PO. b) Exemplary UV chromatograms of bio-PO at pH 8.5 and at 0 and 16 hours, highlighting the internal standard (caffeine) and the compound. c) Reaction conditions for SM-PN and SM-PO. d) Exemplary UV chrommatogramms of SM-PN at pH 8.5 and at 0 and 16 hours, highlighting the internal standard (TPPO) and the compound. All experiments were prepared in triplicates. [picture]
For testing the thiol reactivity of bio-PN and bio-PO at pH 7.4, 10 µL of a 10 mM caffeine (internal standard) stock solution in Tris buffer pH 7.4 (final concentration 1 mM) and 10 µL of a 10 mM peptide stock solution in DMSO were added in 75 µL of 50 mM Tris buffer, pH 7.4. Immediately prior to the measurement, 5 µL of a 200 mM stock solution of reduced glutathione (final concentration 10 mM, 10.0 eq.) in Tris buffer (pH adjusted to 7.4) were added. The solutions were transferred to a sample vial and measured by UPLC-UV/MS at room temperature and at time points t0, t0.5h, t1h, t2h, t4h, t8h, t16h 1 µL of the reaction mixture was injected. For the analysis, the peak area of the internal standard was correlated with that of the starting material. The same protocol was followed at pH 8.5 using Tris buffer adjusted accordingly.
Similar conditions were applied in the case of SM-PN and SM-PO. […]

[2] = Stability of SM-PN and SM-PO in aqueous buffer by 31P NMR; format: physicochemical; conditions: room temperature
Procedure: Next, we assessed the stability of the phosphonamidic and phosphonic acid in aqueous buffers at pH 2, pH 3.5, pH 7.4, pH 8.5, and pH 11. Therefore, SM‐PN and SM‐PO were added in the corresponding buffers and monitored for 48 h at room temperature via ^31P‐NMR with triphenylphosphinoxide (TPPO) as an internal standard (Figure S2). […] Furthermore, we evaluated the stability of the peptide probes bio‐PN and bio‐PO in human lysate for subsequent experiments. These peptides were added in HEK293T cell lysate, and changes in stability were recorded for 18 h via ^31P‐NMR, in which inorganic phosphate served as an internal standard. […] Nonetheless, both peptides display sufficient stability for follow‐up studies.
Figure S2: pH dependent stability of phosphonamidic and phosphonic acids at room temperature monitored by ^31P NMR. a) Decay of starting material SM-PN. […] At pH 2.0 the compound was already hydrolyzed in minutes before the next measurement. b) Decay of SM-PO in identical conditions.
Internal standard triphenylphosphine oxide (TPPO, 12 µL of a 100 mM stock in DMSO, final concentration 2 mM) and SM-PN or SM-PO (36 µL of a 50 mM stock in DMSO, final concentration 3 mM) were added in microcentrifuge tubes containing 552 µL of each test buffer solution (0.1% TFA pH 2, 50 mM NaOAc pH 3.5, 50 mM Tris pH 7.4, 50 mM Tris pH 8.5, 50 mM TEAB pH 11.0, containing 10% D2O (492 μL buffer and 60 μL D2O) and mixed right before the measurement. The mixtures were transferred to NMR tubes and one-dimensional ^31P-NMR spectra were recorded for each sample at room temperature, in intervals of 4 h over the course of 48 h on a Bruker AV-III 600 or AV-III 300 spectrometer. For analysis, the spectra were plotted in MestReNova and the intensity of the ^31P-NMR signal was analyzed by integration.

C#CP(=O)(O)Nc1ccc(CCNC(=O)CCCC[C@@H]2SC[C@@H]3NC(=O)N[C@@H]32)cc1 [SM-PN, N-(4-(2-biotinamidoethyl)phenyl)-P-ethynylphosphonamidic acid]
consumption of starting material to glutathione adduct, pH 7.4 [1]: no consumption of the starting material to a glutathione adduct was observed
consumption of starting material to glutathione adduct, pH 8.5 [1]: no consumption of the starting material to a glutathione adduct was observed
stability in neutral and basic pH ([2]; 50 mM Tris pH 7.4, 50 mM Tris pH 8.5, 50 mM TEAB pH 11.0, 3 mM compound, 48 h): good stability in neutral and basic pH
hydrolysis ([2]; pH 2 (0.1% TFA), 3 mM compound, TPPO internal standard): already hydrolyzed in a few minutes
hydrolysis of the starting material ([2]; pH 3.5 (50 mM NaOAc), 3 mM compound, 10% D2O, TPPO internal standard, 48 h): about 80%

C#CP(=O)(O)Oc1ccc(CCNC(=O)CCCC[C@@H]2SC[C@@H]3NC(=O)N[C@@H]32)cc1 [SM-PO, 4-(2-biotinamidoethyl)phenyl ethynylphosphonic acid monoester]
consumption of starting material to glutathione adduct, pH 7.4 [1]: no consumption of the starting material to a glutathione adduct was observed
consumption of starting material to glutathione adduct, pH 8.5 [1]: no consumption of the starting material to a glutathione adduct was observed
stability at all tested pH values ([2]; pH 2, pH 3.5, pH 7.4, pH 8.5 and pH 11, 3 mM compound, 48 h): excellent stability in all tested pH values
